Assay results from patent US5914339A, “Substituted 1,3-benzodioxoles” (American Home Products Corporation, priority 1997, dated 1999).
pEC50: −log10 of the molar value. Where a name gives a salt, the structure may show the parent alone.

molecular target: human β2 adrenergic receptor (Homo sapiens, UniProt P07550); assay: cell-based; conditions: not given
Method: The activity of the test compounds on human β-adrenergic receptors was determined with Chinese hamster ovary (CHO) cells transfected with human β2, or β1 adrenergic receptors. Agonist activity is indicated by increased cAMP levels in the CHO cells. Selectivity of the test compounds for the β3 receptor was assessed by comparison with results in β2 and β1 adrenergic receptor transfected cells.
1). Chinese hamster ovary (CHO) cells transfected with human β2, or β1 adrenergic receptors were used in the assay.
2). Cells were grown to confluent conditions in 24 well plates.
3). Drugs were dissolved in DMSO at a concentration of 10 μM.
4). Cells were incubated with drug at 10 nM concentration for 10 min at 37° C.
5). Cell cAMP concentrations were assayed using a scintillation proximity assay kit from Amersham Corp., Chicago, Ill.
6). Activities for the test compounds are expressed as a percentage of the isoproterenol response.
Production of the CHO cells transfected with human β2, or β1 adrenergic receptors, and compound test procedures utilizing the CHO cells, are described by Emorine et al. in their article "Molecular Characterization of the Human Beta3 -Adrenergic Receptor", Science 1989, 245(8), 1118-1121 and by Muzzin et al. in the article "An Adipose Tissue-Specific Beta3 -Adrenergic Receptor", J. Biol. Chem.1991, 266, 24053-24058.
^a Human β receptors expressed in Chinese hamster ovary cells,
compounds tested at 10 nM, results expressed as % of isoproterenol
activity (increase in cAMP) at 10 μM. EC50 (μM) values
determined for selected compounds.

human β2 adrenergic receptor, sequence (P07550 whole entry): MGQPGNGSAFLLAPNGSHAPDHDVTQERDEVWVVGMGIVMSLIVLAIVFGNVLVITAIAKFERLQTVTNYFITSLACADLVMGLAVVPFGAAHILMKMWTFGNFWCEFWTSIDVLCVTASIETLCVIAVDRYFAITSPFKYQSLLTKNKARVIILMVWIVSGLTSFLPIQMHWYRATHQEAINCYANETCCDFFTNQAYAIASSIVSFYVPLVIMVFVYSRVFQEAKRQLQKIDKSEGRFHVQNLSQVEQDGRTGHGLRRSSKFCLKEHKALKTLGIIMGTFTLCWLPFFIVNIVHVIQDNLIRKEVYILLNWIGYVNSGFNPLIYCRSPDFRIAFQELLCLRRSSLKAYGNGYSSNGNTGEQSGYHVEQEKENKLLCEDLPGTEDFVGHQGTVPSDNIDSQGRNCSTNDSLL

| Structure (SMILES) | pEC50 |
| --- | --- |
| CC(Cc1ccc2c(c1)OC(C(=O)O)(C(=O)OC(C)C)O2)NCC(O)c1cccc(Cl)c1 (centres unmarked) [Example 22, 5-{2-[2-(3-Chloro-phenyl)-2-hydroxy-ethylamino]-propyl}-benzo[1,3]dioxole-2,2-dicarboxylic acid isopropyl ester] | 7.82 |

same assay, conditions: 10 min; compounds tested at 10 nM, isoproterenol at 10 μM; CHO cells, 10 min at 37° C; read-out: β2: % of isoproterenol activity (increase in cAMP)

| Structure (SMILES) | activation at 0.01 µM [%] |
| --- | --- |
| CC(Cc1ccc2c(c1)OC(C(=O)OCCOC(C)(C)C)(C(=O)OCCOC(C)(C)C)O2)NCC(O)c1cccc(Cl)c1 (centres unmarked) [Example 6, 5-{2-[2-(3-Chloro-phenyl)-2-hydroxy-ethylamino]-propyl}-benzo[1,3]dioxole-2,2-dicarboxylic acid bis-(2-tert-butoxy-ethyl) ester] | 3 |
| CC(Cc1ccc2c(c1)OC(C(=O)O)(C(=O)OCCOC(C)(C)C)O2)NCC(O)c1cccc(Cl)c1 (centres unmarked) [Example 7, 5-{2-[2-(3-Chloro-phenyl)-2-hydroxy-ethylamino]-propyl}-benzo[1,3]dioxole-2,2-dicarboxylic acid (2-tert-butoxy-ethyl) ester] | 2 |
| CC(C)COCCOC(=O)C1(C(=O)OCCOCC(C)C)Oc2ccc(CC(C)NCC(O)c3cccc(Cl)c3)cc2O1 (centres unmarked) [Example 8, 5-{2-[2-(3-Chloro-phenyl)-2-hydroxy-ethylamino]-propyl}-benzo[1,3]dioxole-2,2-dicarboxylic acid bis-(2-isobutoxy-ethyl) ester] | 1 |
| CCCCCCCCOC(=O)C1(C(=O)OCCCCCCCC)Oc2ccc(CC(C)NCC(O)c3cccc(Cl)c3)cc2O1 (centres unmarked) [Example 12, 5-{2-[2-(3-Chloro-phenyl)-2-hydroxy-ethylamino]-propyl}-benzo[1,3]dioxole-2,2-dicarboxylic acid dioctyl ester] | 1 |
| CCCCCCOC(=O)C1(C(=O)OCCCCCC)Oc2ccc(CC(C)NCC(O)c3cccc(Cl)c3)cc2O1 (centres unmarked) [Example 14, 5-{2-[2-(3-Chloro-phenyl)-2-hydroxy-ethylamino]-propyl}-benzo[1,3]dioxole-2,2-dicarboxylic acid dihexyl ester] | 5 |
| CCCCCCCCCOC(=O)C1(C(=O)OCCCCCCCCC)Oc2ccc(CC(C)NCC(O)c3cccc(Cl)c3)cc2O1 (centres unmarked) [Example 18, 5-{2-[2-(3-Chloro-phenyl)-2-hydroxy-ethylamino]-propyl}-benzo[1,3]dioxole-2,2-dicarboxylic acid dinonyl ester] | 6 |

The next lines start with the values.

| activation at 0.01 µM [%] | Structure (SMILES) |
| --- | --- |
| 2 | CCCCCCCCCCOC(=O)C1(C(=O)OCCCCCCCCCC)Oc2ccc(CC(C)NCC(O)c3cccc(Cl)c3)cc2O1 (centres unmarked) [Example 19, 5-{2-[2-(3-Chloro-phenyl)-2-hydroxy-ethylamino]-propyl}-benzo[1,3]dioxole-2,2-dicarboxylic acid bis-decyl ester] |
| 0 | CCCCCCCCCCCCOC(=O)C1(C(=O)OCCCCCCCCCCCC)Oc2ccc(CC(C)NCC(O)c3cccc(Cl)c3)cc2O1 (centres unmarked) [Example 20, 5-{2-[2-(3-Chloro-phenyl)-2-hydroxy-ethylamino]-propyl}-benzo[1,3]dioxole-2,2-dicarboxylic acid didodecyl ester] |
| 6 | CCCOC(=O)COC(=O)C1(C(=O)OCC(=O)OCCC)Oc2ccc(CC(C)NCC(O)c3cccc(Cl)c3)cc2O1 (centres unmarked) [Example 25, 5-{2-[2-(3-Chloro-phenyl)-2-hydroxy-ethylamino]-propyl}-benzo[1,3]dioxole-2,2-dicarboxylic acid bis-propoxycarbonylmethyl ester] |
| 7 | COC(=O)C(C)OC(=O)C1(C(=O)OC(C)C(=O)OC)Oc2ccc(CC(C)NCC(O)c3cccc(Cl)c3)cc2O1 (centres unmarked) [Example 26, 5-{2-[2-(3-Chloro-phenyl)-2-hydroxy-ethylamino]-propyl}-benzo[1,3]dioxole-2,2-dicarboxylic acid bis-(1-methoxycarbonyl-ethyl) ester] |
| 5 | CC(Cc1ccc2c(c1)OC(C(=O)OCC(=O)OC(C)C)(C(=O)OCC(=O)OC(C)C)O2)NCC(O)c1cccc(Cl)c1 (centres unmarked) [Example 27, 5-{2-[2-(3-Chloro-phenyl)-2-hydroxy-ethylamino]-propyl}-benzo[1,3]dioxole-2,2-dicarboxylic acid bis-isopropoxycarbonylmethyl ester] |
| 2 | CCOC(=O)COC(=O)C1(C(=O)OCC(=O)OCC)Oc2ccc(CC(C)NCC(O)c3cccc(Cl)c3)cc2O1 (centres unmarked) [Example 28, 5-{2-[2-(3-Chloro-phenyl)-2-hydroxy-ethylamino]-propyl}-benzo[1,3]dioxole-2,2-dicarboxylic acid bis-ethoxycarbonylmethyl ester] |
| 2 | CCOC(=O)C(C)OC(=O)C1(C(=O)OC(C)C(=O)OCC)Oc2ccc(CC(C)NCC(O)c3cccc(Cl)c3)cc2O1 (centres unmarked) [Example 29, 5-{2-[2-(3-Chloro-phenyl)-2-hydroxy-ethylamino]-propyl}-benzo[1,3]dioxole-2,2-dicarboxylic acid bis-(1-ethoxycarbonyl-ethyl) ester] |
| 2 | CC(Cc1ccc2c(c1)OC(C(=O)OCC1CCCCC1)(C(=O)OCC1CCCCC1)O2)NCC(O)c1cccc(Cl)c1 (centres unmarked) [Example 34, 5-{2-[2-(3-Chloro-phenyl)-2-hydroxy-ethylamino]-propyl}-benzo[1,3]dioxole-2,2-dicarboxylic acid bis-cyclohexylmethyl ester] |
| 4 | CC(C)CCCOC(=O)C1(C(=O)OCCCC(C)C)Oc2ccc(CC(C)NCC(O)c3cccc(Cl)c3)cc2O1 (centres unmarked) [Example 35, 5-{2-[2-(3-Chloro-phenyl)-2-hydroxy-ethylamino]-propyl}-benzo[1,3]dioxole-2,2-dicarboxylic acid bis-(4-methyl-pentyl) ester] |
| 2 | CC(Cc1ccc2c(c1)OC(C(=O)OCCC1CCCCC1)(C(=O)OCCC1CCCCC1)O2)NCC(O)c1cccc(Cl)c1 (centres unmarked) [Example 36, 5-{2-[2-(3-Chloro-phenyl)-2-hydroxy-ethylamino]-propyl}-benzo[1,3]dioxole-2,2-dicarboxylic acid bis-(2-cyclohexyl-ethyl) ester] |
| 3 | CC(Cc1ccc2c(c1)OC(C(=O)OCCCC1CCCC1)(C(=O)OCCCC1CCCC1)O2)NCC(O)c1cccc(Cl)c1 (centres unmarked) [Example 37, 5-{2-[2-(3-Chloro-phenyl)-2-hydroxy-ethylamino]-propyl}-benzo[1,3]dioxole-2,2-dicarboxylic acid bis-(3-cyclopentyl-propyl) ester] |

same assay, conditions: CHO, 10 min, read-out: β2: % of isoproterenol activity (increase in cAMP)

| Structure (SMILES) | activation at 0.01 µM [%] |
| --- | --- |
| COCCOC(=O)C1(C(=O)OCCOC)Oc2ccc(CC(C)NCC(O)c3cccc(Cl)c3)cc2O1 (centres unmarked) [Example 1, 5-{2-[2-(3-Chloro-phenyl)-2-hydroxy-ethylamino]-propyl}-benzo[1,3]dioxole-2,2-dicarboxylic acid bis-(2-methoxy-ethyl) ester hydrochloride salt] | 4 |
| CCCCOCCOC(=O)C1(C(=O)OCCOCCCC)Oc2ccc(CC(C)NCC(O)c3cccc(Cl)c3)cc2O1 (centres unmarked) [Example 3, 5-{2-[2-(3-Chloro-phenyl)-2-hydroxy-ethylamino]-propyl}-benzo[1,3]dioxole-2,2-dicarboxylic acid bis-(2-butoxy-ethyl) ester hydrochloride salt] | 0 |
| CC(Cc1ccc2c(c1)OC(C(=O)OCCOc1ccccc1)(C(=O)OCCOc1ccccc1)O2)NCC(O)c1cccc(Cl)c1 (centres unmarked) [Example 4, 5-{2-[2-(3-Chloro-phenyl)-2-hydroxy-ethylamino]-propyl}-benzo[1,3]dioxole-2,2-dicarboxylic acid bis-(2-phenoxy-ethyl) ester hydrochloride salt] | 1 |
| CCOCCOC(=O)C1(C(=O)OCCOCC)Oc2ccc(CC(C)NCC(O)c3cccc(Cl)c3)cc2O1 (centres unmarked) [Example 5, 5-{2-[2-(3-Chloro-phenyl)-2-hydroxy-ethylamino]-propyl}-benzo[1,3]dioxole-2,2-dicarboxylic acid bis-(2-ethoxy-ethyl) ester hydrochloride salt] | 4 |
| CC(Cc1ccc2c(c1)OC(C(=O)OCc1ccccc1)(C(=O)OCc1ccccc1)O2)NCC(O)c1cccc(Cl)c1 (centres unmarked) [Example 9, 5-{2-[2-(3-Chloro-phenyl)-2-hydroxy-ethylamino]-propyl}-benzo[1,3]dioxole-2,2-dicarboxylic acid bis-(benzyl) ester hydrochloride salt] | 16 |
| CC(Cc1ccc2c(c1)OC(C(=O)OC1CCCCC1)(C(=O)OC1CCCCC1)O2)NCC(O)c1cccc(Cl)c1 (centres unmarked) [Example 10, 5-{2-[2-(3-Chloro-phenyl)-2-hydroxy-ethylamino]-propyl}-benzo[1,3]dioxole-2,2-dicarboxylic acid bis-(cyclohexyl) ester hydrochloride salt] | 0 |
| CC(Cc1ccc2c(c1)OC(C(=O)OC[Si](C)(C)C)(C(=O)OC[Si](C)(C)C)O2)NCC(O)c1cccc(Cl)c1 (centres unmarked) [Example 30, 5-{2-[2-(3-Chloro-phenyl)-2-hydroxy-ethylamino]-propyl}-benzo[1,3]dioxole-2,2-dicarboxylic acid bis-trimethylsilanylmethyl ester] | 0 |
| CC(Cc1ccc2c(c1)OC(C(=O)OCCC[Si](C)(C)C)(C(=O)OCCC[Si](C)(C)C)O2)NCC(O)c1cccc(Cl)c1 (centres unmarked) [Example 32, 5-{2-[2-(3-Chloro-phenyl)-2-hydroxy-ethylamino]-propyl}-benzo[1,3]dioxole-2,2-dicarboxylic acid bis-(3-trimethylsilanyl-propyl) ester] | 2 |
